Assay [1] has as its system Zika virus. Kind of assay: Functional CPE-based assay to measure dose dependent changes in antiviral-drug inhibitory efficacy against Zika virus MR766 in Vero E6 miRFP670 cells (cotreated with P-gp inhibitor, CP100356). Cells are treated with antiviral candidates that are serially diluted. EC50 is reported via analysis of MTS assay as a readout of CPE. The assay has been performed by KU Leuven. In kind it is organism-based, Chlorocebus sabaeus, Vero C1008. The settings on record: Zika virus; for EC90: P-gp concentration 500 nM, P-gp inhibitor CP100356.

Assay [2] deals with dengue virus type 2. Kind of assay: Functional assay to measure dose dependent changes in antiviral-drug inhibitory efficacy against Dengue virus type 2 New Guinea C in Vero E6 miRFP670 cells (cotreated with P-gp inhibitor, CP100356). Cells are treated with antiviral candidates that are serially diluted, following infection, cells are fixed. EC50 is reported via analysis of fluorescence intensity using high-content imager. The …. The format is organism-based, Chlorocebus sabaeus, Vero C1008. The settings on record: Dengue virus; for EC90: P-gp concentration 500 nM, P-gp inhibitor CP100356.

For the molecule `COc1cc(Br)cc(C(=O)Nc2ccc3c(c2)CNC3)c1`, the EC50 is 12.8 µM in assay [1] (Vero C1008) and more than 25 µM in assay [2] (Vero C1008). For the same molecule, the EC90 was 20.5 µM in assay [1] (Vero C1008, Baseline response 0 %, EC90 CI (lower) 14.493 uM, EC90 CI (upper) 28.879 uM, Hill slope 4.703, Maximum measured 104.946 %, Maximum response 100 %, Minimum measured 1.527 %, R squared 0.964) and more than 25 µM in assay [2] (Vero C1008, Baseline response 0 %, Hill slope -0.242, Maximum measured 88.855 %, Maximum response 100 %, Minimum measured 49.171 %, R squared 0.071).
Regarding `Cc1ncc(-c2cc(F)cc(C(=O)Nc3ccc4c(c3)CNC4)c2)o1`, the EC50 in assay [1] (Vero C1008) was more than 6.25 µM; in assay [2] (Vero C1008), 16.5 µM. The EC90 in assay [1] (Vero C1008, Baseline response 0 %, Hill slope 1.881, Maximum measured 43.228 %, Maximum response 100 %, Minimum measured 5.06 %, R squared 0.9) was more than 6.25 µM; in assay [2] (Vero C1008, Baseline response 0 %, Hill slope -0.224, Maximum measured 78.762 %, Maximum response 100 %, Minimum measured 32.755 %, R squared 0.24), more than 50 µM.
Take `O=C(Nc1ccc2c(c1)CNC2)c1cc(Cl)cc2[nH]c(-c3ccc(F)cc3O)nc12`: the results for the EC50 in assay [1] (Vero C1008) and in assay [2] (Vero C1008) were more than 0.781 µM and more than 1.56 µM, respectively. Also, the EC90 is more than 0.781 µM in assay [1] (Vero C1008, Baseline response 0 %, Hill slope 0.819, Maximum measured -0.871 %, Maximum response 100 %, Minimum measured -1.788 %, R squared 0.426) and more than 1.56 µM in assay [2] (Vero C1008, Maximum measured 186.201 %, Minimum measured 124.759 %).
Turning to `O=C(NCC(F)F)[C@H](Nc1ccc2c(c1)CNC2)c1cc(F)cc2[nH]ccc12`, the EC50 in assay [1] (Vero C1008) and in assay [2] (Vero C1008) was more than 50 µM throughout. The EC90 is more than 50 µM in assay [1] (Vero C1008, Baseline response 0 %, Hill slope 0.152, Maximum measured 3.288 %, Maximum response 100 %, Minimum measured 0.363 %, R squared 0.104) and more than 50 µM in assay [2] (Vero C1008, Maximum measured 207.16 %, Minimum measured 119.939 %).
As for `O=C(NCCC1CC1)[C@H](Nc1ccc2c(c1)CNC2)c1cc(Cl)cc(C2CC2)c1`, the figures for the EC50 in assay [1] (Vero C1008) and in assay [2] (Vero C1008) were 5.72 µM and more than 12.5 µM, respectively. Besides, the EC90 is more than 6.25 µM in assay [1] (Vero C1008, Baseline response 0 %, Hill slope 7.335, Maximum measured 65.758 %, Maximum response 100 %, Minimum measured 0.052 %, R squared 0.996) and more than 12.5 µM in assay [2] (Vero C1008, Baseline response 0 %, Hill slope -1.051, Maximum measured 118.853 %, Maximum response 100 %, Minimum measured 76.41 %, R squared 0.201).
Consider `O=C(Nc1ccc2c(c1)CNC2)c1cc(F)cc(-c2cccnc2)c1`, for which the EC50 in assay [1] (Vero C1008) was 6.3 µM; in assay [2] (Vero C1008), 0.651 µM. Besides, the EC90 in assay [1] (Vero C1008, Baseline response 0 %, Hill slope 23.488, Maximum measured 123.724 %, Maximum response 100 %, Minimum measured 1.449 %, R squared 0.923) was 6.91 µM; in assay [2] (Vero C1008, Baseline response 0 %, Hill slope -0.704, Maximum measured 60.172 %, Maximum response 100 %, Minimum measured 15.025 %, R squared 0.92), more than 12.5 µM.
As to `O=C(Nc1cc(Br)c2c(c1)CNC2)c1cc(F)cc2[nH]ncc12`, the EC50 in assay [1] (Vero C1008) is 1.56 µM; in assay [2] (Vero C1008) it was more than 50 µM. The EC90 in assay [1] (Vero C1008, Baseline response 0 %, Hill slope 40.279, Maximum measured 114.894 %, Maximum response 100 %, Minimum measured 2.051 %, R squared 0.957) is 1.65 µM; in assay [2] (Vero C1008, Baseline response 0 %, Hill slope -0.743, Maximum measured 120.32 %, Maximum response 100 %, Minimum measured 52.999 %, R squared 0.166), more than 50 µM.
With `CC1=C(c2cc(NC(=O)c3cc(Cl)cc4[nH]ncc34)cc3c2CNC3)CCC1=O`, the EC50 in assay [1] (Vero C1008) and in assay [2] (Vero C1008) was more than 50 µM in each case. The EC90 in assay [1] (Vero C1008, Baseline response 0 %, Hill slope 0.456, Maximum measured 3.948 %, Maximum response 100 %, Minimum measured -0.924 %, R squared 0.076) was more than 50 µM; in assay [2] (Vero C1008, Maximum measured 165.308 %, Minimum measured 53.221 %), more than 50 µM.
Consider `O=C(Nc1cc2c(c(C3=CC[C@H](O)CC3)c1)CNC2)c1cc(Cl)cc2[nH]ncc12`, for which the results for the EC50 in assay [1] (Vero C1008) and in assay [2] (Vero C1008) were 46.6 µM and more than 50 µM, respectively. Besides, the EC90 is more than 50 µM in assay [1] (Vero C1008, Baseline response 0 %, Hill slope 3.698, Maximum measured 56.446 %, Maximum response 100 %, Minimum measured 0.896 %, R squared 0.945) and more than 50 µM in assay [2] (Vero C1008, Maximum measured 128.94 %, Minimum measured 80.48 %).
Regarding `O=C(Nc1ccc2c(c1)CN[C@H]2CCO)c1cc(F)cc2[nH]ncc12`, the EC50 in assay [1] (Vero C1008) and in assay [2] (Vero C1008) was more than 50 µM in each case. The EC90 in assay [1] (Vero C1008, Baseline response 0 %, Hill slope 1.133, Maximum measured 29.989 %, Maximum response 100 %, Minimum measured 0.147 %, R squared 0.888) is more than 50 µM; in assay [2] (Vero C1008, Baseline response 0 %, Hill slope 0.366, Maximum measured 128.215 %, Maximum response 100 %, Minimum measured 81.639 %, R squared 0.156) it was more than 50 µM.
Take `O=C(Nc1ccc2c(c1)CNC2)c1cccc2nc(O)ccc12`: the EC50 in assay [1] (Vero C1008) and in assay [2] (Vero C1008) was more than 50 µM throughout. The EC90 in assay [1] (Vero C1008, Maximum measured -4.519 %, Minimum measured -18.451 %) is more than 50 µM; in assay [2] (Vero C1008, Maximum measured 128.112 %, Minimum measured 90.404 %) it was more than 50 µM.
With `O=C1Cc2cc(C(=O)Nc3ccc4c(c3)CNC4)ccc2N1`, the EC50 in assay [1] (Vero C1008) and in assay [2] (Vero C1008) was more than 50 µM each time. Moreover, the EC90 in assay [1] (Vero C1008, Maximum measured 9.003 %, Minimum measured -9.167 %) is more than 50 µM; in assay [1] (Vero C1008, Baseline response 0 %, Hill slope 1.599, Maximum measured 7.523 %, Maximum response 100 %, Minimum measured -2.208 %, R squared 0.547), more than 50 µM; in assay [2] (Vero C1008, Maximum measured 132.031 %, Minimum measured 88.326 %), more than 50 µM; in assay [2] (Vero C1008, Maximum measured 147.509 %, Minimum measured 105.326 %) it was more than 50 µM; in assay [2] (Vero C1008, Maximum measured 183.11 %, Minimum measured 101.645 %) it was more than 50 µM.
Consider `N#Cc1cccc(-c2nc3c(C(=O)Nc4ccc5c(c4)CNC5)cc(Cl)cc3[nH]2)c1`, for which the EC50 is more than 3.12 µM in assay [1] (Vero C1008) and more than 50 µM in assay [2] (Vero C1008). In addition, the EC90 was more than 3.12 µM in assay [1] (Vero C1008, Baseline response 0 %, Hill slope 0.859, Maximum measured 7.667 %, Maximum response 100 %, Minimum measured 0.919 %, R squared 0.501) and more than 50 µM in assay [2] (Vero C1008, Maximum measured 129.968 %, Minimum measured 100.984 %).
With `O=C(Nc1ccc2c(c1)CNC2)c1cccc2cn[nH]c12`, the values for the EC50 in assay [1] (Vero C1008) and in assay [2] (Vero C1008) were more than 50 µM and 46.1 µM, respectively. The EC90 in assay [1] (Vero C1008, Baseline response 0 %, Hill slope 0.311, Maximum measured 17.727 %, Maximum response 100 %, Minimum measured -4.778 %, R squared 0.076) is more than 50 µM; in assay [2] (Vero C1008, Baseline response 0 %, Hill slope -1.364, Maximum measured 96.577 %, Maximum response 100 %, Minimum measured 45.147 %, R squared 0.579), more than 50 µM.
As to `O=C(Nc1ccc2c(c1)CNC2)c1cc(F)cc(-c2cnc(C3CC3)s2)c1`, the EC50 in assay [1] (Vero C1008) amounted to 5.37 µM; in assay [2] (Vero C1008), 11.6 µM. Further, the EC90 in assay [1] (Vero C1008, Baseline response 0 %, Hill slope 4.772, Maximum measured 67.326 %, Maximum response 100 %, Minimum measured 1.512 %, R squared 0.988) is more than 6.25 µM; in assay [2] (Vero C1008, Baseline response 0 %, Hill slope -1.802, Maximum measured 130.062 %, Maximum response 100 %, Minimum measured 44.88 %, R squared 0.382), more than 12.5 µM.
As for `O=C(Nc1ccc2c(c1)CNC2)c1cc(Cl)cc2ccccc12`, the EC50 in assay [1] (Vero C1008) and in assay [2] (Vero C1008) was more than 50 µM throughout. Also, the EC90 is more than 50 µM in assay [1] (Vero C1008, Baseline response 0 %, Hill slope -0.363, Maximum measured 9.094 %, Maximum response 100 %, Minimum measured -16.765 %, R squared 0.057) and more than 50 µM in assay [2] (Vero C1008, Baseline response 0 %, Hill slope 0.531, Maximum measured 139.444 %, Maximum response 100 %, Minimum measured 57.429 %, R squared 0.178).
For the molecule `O=C(Nc1ccc2c(c1)CNC2)c1cc(Cl)cc2c1NCCC2`, the EC50 in assay [1] (Vero C1008) and in assay [2] (Vero C1008) was more than 50 µM in each case. For the same molecule, the EC90 in assay [1] (Vero C1008, Maximum measured 8.781 %, Minimum measured -16.872 %) was more than 50 µM; in assay [2] (Vero C1008, Baseline response 0 %, Hill slope 0.298, Maximum measured 134.107 %, Maximum response 100 %, Minimum measured 52.01 %, R squared 0.047) it was more than 50 µM.

(Values after ChEMBL document CHEMBL5661943, “ASAP - In vitro antiviral effect” (2024).)
